Consider 2 compounds from paper PMC4106271 (Journal of Medicinal Chemistry, 2014).

One data set concerns the target T1, α1β2γ2S GABAA receptors (Homo sapiens, UniProt P14867+P47870).
T1 construct: expressed in transfected cells; host or cells: Xenopus laevis oocytes injected with cRNA (pCMV cDNA templates)
In words: Two-microelectrode voltage clamp, IGABA modulation, α1β2γ2S. It counts as cell-based. The settings on record: for nH: Hill coefficient of concentration–response curve; for EC50: IGABA enhancement, GABA EC3–7, Xenopus oocytes. The protocol:
(§1) Preparation of stage V–VI oocytes from X. laevis and synthesis of capped runoff poly(A) cRNA transcripts from linearized cDNA templates (pCMV vector) was performed as previously described.[49] […] Follicle membranes from isolated oocytes were enzymatically digested with 2 mg/mL collagenase (type 1A, Sigma–Aldrich, Vienna, Austria).
(§2) Selected oocytes were injected with 10–50 nL of DEPC-treated water (diethyl pyrocarbonate, Sigma, Vienna, Austria) containing the different GABAA cRNAs at a concentration of approximately 300–3000 pg·nL^–1·subunit^–1.
(§3) To ensure expression of the γ2S subunit in the case of α1/2/3/5β2/3γ2S receptors, cRNAs were mixed in a ratio of 1:1:10. […] The amount of cRNAs was determined by means of a NanoDrop ND-1000 (Kisker-Biotech, Steinfurt, Germany).
(§4) Oocytes were stored at +18 °C in modified ND96 solution (90 mM NaCl, 1 mM CaCl2, 1 mM KCl, 1 mM MgCl2·6H2O, and 5 mM HEPES [4-(2-hydroxyethyl)-1-piperazineethanesulfonic acid], pH 7.4, all from Sigma–Aldrich, Vienna, Austria).
(§5) Chloride currents through GABAA receptors (IGABA) were measured at room temperature (+21 ± 1 °C) by means of a two-microelectrode voltage clamp technique making use of a Turbo TEC-05X amplifier (npi electronic, Tamm, Germany). IGABA were elicited at a holding potential of –70 mV. Data acquisition was carried out by means of an Axon Digidata 1322A interface using pCLAMP v.10 (Molecular Devices, Sunnyvale, CA). The modified ND96 solution was used as bath solution.
(§6) GABA and the studied derivatives were applied by means of the ScreeningTool (npi electronic, Tamm, Germany) fast perfusion system as described previously.[50] To elicit IGABA, the chamber was perfused with 120 μL of GABA- or compound-containing solution at a volume rate of 300 μL/s.[34] Care was taken to account for possible slow recovery from increasing levels of desensitization in the presence of high drug concentrations. The duration of washout periods was therefore extended from 1.5 min (<10 μM compounds) to 30 min (≥10 μM compounds). Oocytes with maximal current amplitudes >3 μA were discarded to exclude voltage clamp errors.
Stimulation of chloride currents by modulators of the GABAA receptor was measured at a GABA concentration eliciting between 3% and 7% of the maximal current amplitude (EC3–7). The GABA EC3–7 was determined for each oocyte individually. Enhancement of the chloride current was defined as (IGABA+compd/IGABA) – 1, where IGABA+compd is the current response in the presence of a given compound and IGABA is the control GABA current. IGABA-max reflects the maximal IGABA enhancement. Concentration–response curves were generated and the data were fitted by nonlinear regression analysis using Origin Software (OriginLab Corp.). Data were fitted to the equation 1/(1 + (EC50/[compound])^nH), where nH is the Hill coefficient. […] Statistical significance was calculated by paired Student t-test with a confidence interval of <0.05.

A further data set concerns the target T2, α4β2γ2S GABAA receptors (Homo sapiens, UniProt P47870+P48169).
T2 construct: expressed in transfected cells; host or cells: Xenopus laevis oocytes injected with cRNA (pCMV cDNA templates)
Nature of the data set: Two-microelectrode voltage clamp, IGABA modulation, α4β2γ2S. The class given is cell-based. The settings on record: for nH: Hill coefficient. The protocol: as §1, §2, §3, §4, §5, §6
(§7) Stimulation of chloride currents by modulators of the GABAA receptor was measured at a GABA concentration eliciting between 3% and 7% of the maximal current amplitude (EC3–7). The GABA EC3–7 was determined for each oocyte individually. Enhancement of the chloride current was defined as (IGABA+compd/IGABA) – 1, where IGABA+compd is the current response in the presence of a given compound and IGABA is the control GABA current. IGABA-max reflects the maximal IGABA enhancement. […] Statistical significance was calculated by paired Student t-test with a confidence interval of <0.05.

The target in another data set is T3, α5β2γ2S GABAA receptors (Homo sapiens, UniProt P31644+P47870).
T3 construct: expressed in transfected cells; host or cells: Xenopus laevis oocytes injected with cRNA (pCMV cDNA templates)
T3 sequence (P31644 32-462): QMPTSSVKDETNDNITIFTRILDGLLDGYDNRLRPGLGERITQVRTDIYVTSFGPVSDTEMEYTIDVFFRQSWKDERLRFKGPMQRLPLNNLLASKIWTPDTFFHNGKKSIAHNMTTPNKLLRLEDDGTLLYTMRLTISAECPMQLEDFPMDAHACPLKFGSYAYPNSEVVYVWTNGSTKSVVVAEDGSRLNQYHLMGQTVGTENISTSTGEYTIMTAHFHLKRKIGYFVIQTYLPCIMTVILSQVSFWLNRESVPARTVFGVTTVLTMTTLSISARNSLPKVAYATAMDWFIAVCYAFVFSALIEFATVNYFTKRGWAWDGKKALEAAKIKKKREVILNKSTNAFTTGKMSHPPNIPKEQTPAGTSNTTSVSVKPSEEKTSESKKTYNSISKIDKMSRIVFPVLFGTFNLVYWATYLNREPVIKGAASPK
T3 sequence (P47870 26-512): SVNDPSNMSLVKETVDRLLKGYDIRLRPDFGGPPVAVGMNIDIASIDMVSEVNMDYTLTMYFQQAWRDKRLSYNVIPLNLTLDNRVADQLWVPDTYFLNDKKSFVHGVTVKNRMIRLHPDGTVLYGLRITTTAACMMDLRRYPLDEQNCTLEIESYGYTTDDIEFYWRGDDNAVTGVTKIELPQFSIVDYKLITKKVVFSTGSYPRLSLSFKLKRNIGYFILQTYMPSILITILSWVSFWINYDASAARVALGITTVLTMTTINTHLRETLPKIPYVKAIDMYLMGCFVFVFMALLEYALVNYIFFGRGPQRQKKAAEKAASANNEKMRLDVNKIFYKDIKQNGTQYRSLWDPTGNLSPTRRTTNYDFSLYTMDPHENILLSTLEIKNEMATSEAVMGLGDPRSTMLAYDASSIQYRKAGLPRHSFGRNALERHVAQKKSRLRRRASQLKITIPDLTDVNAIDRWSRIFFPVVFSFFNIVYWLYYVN
T3 sequence (P18507 40-467 isoform P18507-1 partner limits assumed): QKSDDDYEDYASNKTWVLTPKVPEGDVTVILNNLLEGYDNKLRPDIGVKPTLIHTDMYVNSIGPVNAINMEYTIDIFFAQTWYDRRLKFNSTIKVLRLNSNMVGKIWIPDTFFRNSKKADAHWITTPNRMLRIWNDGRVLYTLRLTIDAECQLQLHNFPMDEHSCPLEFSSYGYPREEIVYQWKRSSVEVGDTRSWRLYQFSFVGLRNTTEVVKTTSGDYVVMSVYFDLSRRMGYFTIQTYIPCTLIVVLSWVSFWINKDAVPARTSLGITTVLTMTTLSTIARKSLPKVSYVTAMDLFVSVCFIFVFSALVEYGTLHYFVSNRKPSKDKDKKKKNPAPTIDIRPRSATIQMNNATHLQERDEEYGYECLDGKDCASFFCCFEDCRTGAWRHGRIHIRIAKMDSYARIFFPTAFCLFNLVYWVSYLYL
Nature of the data set: Two-microelectrode voltage clamp, IGABA modulation, α5β2γ2S. The class given is cell-based. The settings on record: for nH: Hill coefficient. As for the experimental part: as §1, §2, §3, §4, §5, §6, §7

The target of the next data set is T4, TRPV1 (Homo sapiens, UniProt Q8NER1).
T4 construct: expressed in transfected cells; host or cells: Xenopus laevis oocytes
T4 sequence (Q8NER1 whole entry, species assumed): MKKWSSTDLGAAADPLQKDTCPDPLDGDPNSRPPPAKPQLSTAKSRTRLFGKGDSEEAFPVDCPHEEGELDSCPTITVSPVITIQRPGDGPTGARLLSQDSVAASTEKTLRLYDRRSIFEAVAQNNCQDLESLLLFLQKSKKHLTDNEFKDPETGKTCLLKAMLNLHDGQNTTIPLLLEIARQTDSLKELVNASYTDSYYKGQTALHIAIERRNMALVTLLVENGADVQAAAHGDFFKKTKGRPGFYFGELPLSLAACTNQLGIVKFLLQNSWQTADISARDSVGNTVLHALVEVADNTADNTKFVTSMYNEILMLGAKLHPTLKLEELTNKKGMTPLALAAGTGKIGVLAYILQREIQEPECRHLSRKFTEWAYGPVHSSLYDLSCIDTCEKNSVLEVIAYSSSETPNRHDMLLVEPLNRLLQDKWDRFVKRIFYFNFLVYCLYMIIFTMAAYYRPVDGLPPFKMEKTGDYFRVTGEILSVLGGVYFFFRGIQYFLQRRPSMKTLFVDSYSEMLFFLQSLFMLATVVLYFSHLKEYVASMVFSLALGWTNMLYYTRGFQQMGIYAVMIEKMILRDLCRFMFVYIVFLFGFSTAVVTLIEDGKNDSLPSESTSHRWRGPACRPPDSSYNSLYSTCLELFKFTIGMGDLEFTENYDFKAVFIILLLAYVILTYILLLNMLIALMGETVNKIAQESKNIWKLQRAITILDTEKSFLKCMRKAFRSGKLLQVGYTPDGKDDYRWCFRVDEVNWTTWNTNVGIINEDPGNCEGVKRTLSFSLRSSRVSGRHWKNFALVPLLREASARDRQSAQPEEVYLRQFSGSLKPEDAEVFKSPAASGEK
Nature of the data set: TRPV1 activation in Xenopus oocytes. The following applies: 100 μM, data not shown. It counts as cell-based. An excerpt: (for review see ref ([47])). In order to rule out potential activation of TRPV1, selected compounds were studied in X. laevis oocytes for interaction with TRPV1 prior to in vivo characterization. […] Both compounds were further characterized concerning their anxiolytic activity (see also ref ([34])).

The test system of data set [1] is male C57BL/6N mice. In words: Elevated plus maze test. The class given is in vivo. The settings on record: for time spent in open arms (OA) as percentage of total time: 30 min after application, EPM; for effect in the EPM test: ip, 30 min before test. As for the experimental part:
(§8) Male mice (C57BL/6N) were obtained from Charles River Laboratories (Sulzfeld, Germany). For maintenance, mice were group-housed (maximum five mice per type IIL cage) with free access to food and water. At least 24 h before the commencement of experiments, mice were transferred to the testing facility, where they were given free access to food and water. The temperature in the maintenance and testing facilities was 23 ± 1 °C; the humidity was 40–60%; a 12 h light–dark cycle was in operation (lights on from 07:00 to 19:00). Only male mice aged 3–6 months were tested.
(§9) Compounds were applied by intraperitoneal (ip) injection 30 min before each test. Testing solutions were prepared in a solvent composed of 0.9% NaCl solution with 10% dimethyl sulfoxide (DMSO) and 3% Tween 80. […] All doses are indicated as milligrams per kilogram of body weight of the animal.
The animals’ behavior was tested over 5 min on an elevated plus maze 1 m above ground consisting of two closed and two open arms, each 50 × 5 cm in size. The test instrument was built from gray PVC; the height of closed arm walls was 20 cm. Illumination was set to 180 Lux. Animals were placed in the center, facing an open arm. Analysis of open and closed arm entries and time on open arm was automatically done with Video-Mot 2 equipment and software (TSE Systems, Bad Homburg, Germany).[34]

The test system of data set [2] is male C57BL/6N mice. Nature of the data set: Open field test. The class given is in vivo. The following applies: ip, total ambulation. As for the experimental part:
as §8, §9
Ambulation was tested over 10 min in a 50 × 50 cm flexfield box equipped with infrared rearing detection. Illumination was set to 150 Lux. The animals’ explorative behavior was analyzed by use of the ActiMot 2 equipment and software (TSE-systems, Bad Homburg, Germany). Arenas were subdivided into border (up to 8 cm from wall), center (20 × 20 cm, 16% of total area), and intermediate area according to the recommendations of EMPRESS (European Mouse Phenotyping Resource of Standardised Screens; http://empress.har.mrc.ac.uk).

T2 sequence (P48169 36-554): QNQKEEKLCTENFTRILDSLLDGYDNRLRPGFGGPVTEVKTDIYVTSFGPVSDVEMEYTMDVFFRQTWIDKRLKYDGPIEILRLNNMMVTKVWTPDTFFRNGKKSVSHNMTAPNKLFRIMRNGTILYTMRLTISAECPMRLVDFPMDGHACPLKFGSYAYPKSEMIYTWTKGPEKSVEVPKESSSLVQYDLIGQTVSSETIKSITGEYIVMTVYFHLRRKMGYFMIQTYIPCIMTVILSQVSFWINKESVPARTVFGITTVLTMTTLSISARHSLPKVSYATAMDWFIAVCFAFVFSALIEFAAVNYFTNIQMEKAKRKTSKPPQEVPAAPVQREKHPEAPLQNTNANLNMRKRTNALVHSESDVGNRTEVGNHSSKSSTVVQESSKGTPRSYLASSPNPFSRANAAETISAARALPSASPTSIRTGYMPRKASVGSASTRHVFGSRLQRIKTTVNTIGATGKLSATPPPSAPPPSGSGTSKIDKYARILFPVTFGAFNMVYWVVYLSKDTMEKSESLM
T2 sequence (P47870 26-512): as the sequence (P47870 26-512) above
T2 sequence (P18507 40-467 isoform P18507-1 partner limits assumed): as the sequence (P18507 40-467 isoform P18507-1 partner limits assumed) above
T1 sequence (P14867 28-456): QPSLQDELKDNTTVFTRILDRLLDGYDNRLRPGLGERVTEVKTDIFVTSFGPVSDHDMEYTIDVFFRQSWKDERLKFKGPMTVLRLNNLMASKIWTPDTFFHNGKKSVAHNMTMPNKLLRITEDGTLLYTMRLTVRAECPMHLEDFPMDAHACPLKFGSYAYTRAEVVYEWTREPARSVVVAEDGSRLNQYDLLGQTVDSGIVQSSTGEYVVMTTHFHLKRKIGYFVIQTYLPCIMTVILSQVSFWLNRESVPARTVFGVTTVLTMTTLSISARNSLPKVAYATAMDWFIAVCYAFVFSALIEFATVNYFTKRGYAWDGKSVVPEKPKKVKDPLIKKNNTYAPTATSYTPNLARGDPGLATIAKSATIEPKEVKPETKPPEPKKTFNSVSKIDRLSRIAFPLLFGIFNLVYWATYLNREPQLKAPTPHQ
T1 sequence (P47870 26-512): as the sequence (P47870 26-512) above
T1 sequence (P18507 40-467 isoform P18507-1 partner limits assumed): as the sequence (P18507 40-467 isoform P18507-1 partner limits assumed) above

By EC50 is commonly meant the midpoint of the concentration-response curve. As to `CCCN(CCC)C(=O)/C=C/C=C/c1ccc2c(c1)OCO2` [Compound 23, (2E,4E)-5-(1,3-benzodioxol-5-yl)-N,N-dipropyl-2,4-pentadienamide], the results for the nH at α1β2γ2S GABAA receptors, on α4β2γ2S GABAA receptors and at α5β2γ2S GABAA receptors were 3.1 ± 0.8, 1.7 ± 0.1 and 1.4 ± 0.1, respectively. Also, the 50% effective concentration (EC50) on α1β2γ2S GABAA receptors stood at 51.7 ± 9.5 µM; at α4β2γ2S GABAA receptors it was 34.7 ± 3.8 µM; on α5β2γ2S GABAA receptors, 61.9 ± 10.4 µM. Besides, on TRPV1, the “activation of TRPV1” value was “did not activate TRPV1”. For the same compound, in the data set with male C57BL/6N mice [1] (0.3 mg/kg ip), the “time spent in open arms (OA) as percentage of total time” value is 45.6% ± 3.2%. Moreover, in the data set on male C57BL/6N mice [1], the “effect in the EPM test” value was “anxiolytic effects”. The “sedation in the OF test” value with male C57BL/6N mice [2] is “little sedation”.

With `CCCCN(CCCC)C(=O)/C=C/C=C/c1ccc2c(c1)OCO2` [Compound 25, (2E,4E)-5-(1,3-Benzodioxol-5-yl)-N,N-dibutyl-2,4-pentadienamide], the nH on α1β2γ2S GABAA receptors is 1.8 ± 0.1; on α4β2γ2S GABAA receptors it was 1.3 ± 0.3; at α5β2γ2S GABAA receptors, 1.7 ± 0.2. Besides, the EC50 on α1β2γ2S GABAA receptors came to 13.8 ± 1.8 µM; at α4β2γ2S GABAA receptors, 56.7 ± 21 µM; at α5β2γ2S GABAA receptors, 17.2 ± 1.4 µM. Besides, the “activation of TRPV1” value on TRPV1 is on record as “did not activate TRPV1”. Further, the “time spent in open arms (OA) as percentage of total time” value in the data set with male C57BL/6N mice [1] (0.3 mg/kg ip) is 39.8% ± 4.1%; in the data set on male C57BL/6N mice [1] (3 mg/kg ip) it was 43.9% ± 4.3%. In the data set with male C57BL/6N mice [1], the “effect in the EPM test” value was “anxiolytic effects”. In the data set on male C57BL/6N mice [2], the “sedation in the OF test” value is reported as “little sedation”.
